Test results as given in patent US7148325B2, “Chimeric retroviral gag genes and screening assays” (priority 2000, dated 2006).
Entries after “also recorded” stand apart in the source; their conditions may differ.

Key:
M-PMV Gag [1] = molecular target: T1, M-PMV Gag (Mason-Pfizer monkey virus, UniProt P07567); experiment: In vitro transcription/translation and assembly, sucrose density gradient fractionation and SDS-PAGE, M-PMV Gag; assay type: biochemical; conditions: added with cyclohexamide after 30 minutes of incubation, reaction continued 90 minutes
T1 construct: made in house; host or cells: cell-free: coupled in vitro transcription/translation in rabbit reticulocyte lysate
T1 sequence (P07567 whole entry): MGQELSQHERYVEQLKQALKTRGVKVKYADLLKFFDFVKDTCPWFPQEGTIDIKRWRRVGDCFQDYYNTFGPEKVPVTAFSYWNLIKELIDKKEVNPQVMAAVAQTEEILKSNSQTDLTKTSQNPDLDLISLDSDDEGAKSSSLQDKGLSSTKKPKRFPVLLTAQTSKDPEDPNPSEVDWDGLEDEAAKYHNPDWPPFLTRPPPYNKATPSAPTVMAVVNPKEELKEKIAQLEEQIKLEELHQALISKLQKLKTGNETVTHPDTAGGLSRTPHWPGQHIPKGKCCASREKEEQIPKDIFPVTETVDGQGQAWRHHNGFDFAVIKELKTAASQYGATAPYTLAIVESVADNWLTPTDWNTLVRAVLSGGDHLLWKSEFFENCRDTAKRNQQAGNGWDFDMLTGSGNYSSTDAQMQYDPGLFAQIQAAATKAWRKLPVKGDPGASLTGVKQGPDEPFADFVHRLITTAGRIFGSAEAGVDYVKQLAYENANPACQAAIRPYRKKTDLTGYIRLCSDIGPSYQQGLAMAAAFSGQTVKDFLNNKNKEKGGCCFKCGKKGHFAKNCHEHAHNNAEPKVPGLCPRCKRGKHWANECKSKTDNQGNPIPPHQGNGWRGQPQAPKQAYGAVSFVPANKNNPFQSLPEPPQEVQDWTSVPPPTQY
Description: (§1) FIGS. 3A–E—In vitro transcription and translation reactions using plasmids containing M-PMV, HIV, and Chimera 3a gag genes. After 30 minutes of incubation, cyclohexamide (left panels, FIGS. 3A, 3C, and 3E) or cyclohexamide plus bis-ANS (right panels, FIGS. 3B, 3D, and 3F) were added to the reactions. The reactions were then allowed to continue for an additional 90 minutes. Assembled products were analyzed by sucrose density gradient fractionation and SDS-PAGE. Like M-PMV, but in contrast to HIV, the formation of sedimented material indicative of particle formation by Chimera 3a has been inhibited by the addition of bis-ANS.
FIGS. 4A–D—In vitro transcription and translation reactions using plasmids containing M-PMV and Chimera 4 gag genes. After 30 minutes of incubation, cyclohexamide (left panels, FIGS. 4A and 4C) or cyclohexamide plus bis-ANS (right panels, FIGS. 4B and 4D) were added to the reactions. The reactions were then allowed to continue for an additional 90 minutes. Assembled products were analyzed by sucrose density gradient fractionation and SDS-PAGE. Like M-PMV, the formation of sedimented material by Chimera 4 has been inhibited by the addition of bis-ANS. Lanes L and P indicate the loading material and re-suspended pellet, respectively. […]

Chimera 3a = molecular target: T2, Chimera 3a (Human immunodeficiency virus type 1 group M subtype B, UniProt P04591); experiment: In vitro transcription/translation and assembly, sucrose density gradient fractionation and SDS-PAGE, Chimera 3a Gag; assay type: biochemical, HIV / M-PMV; conditions: added with cyclohexamide after 30 minutes of incubation, reaction continued 90 minutes
T2 construct: made in house; host or cells: cell-free: in vitro transcription/translation (reticulocyte lysate) from plasmid pDABCh3a
Description: as §1
(§2) In vitro assembly assays, such as that taught by Sakalian, M., et al. (1996), “Synthesis and assembly of retrovirus Gag precursors into immature capsids in vitro,” J Virol 70, pp. 3706–15, hereby incorporated by reference in its entirety, maybe used to screen for inhibitors of capsid assembly. Briefly, in vitro transcription of chimeric gag -containing plasmids to produce capped RNA transcripts may be performed using the mMESSAGE MMACHINE kit (Ambion, Austin, Tex.), in accordance with the manufacturers instructions. Translation reactions may be performed in the presence of [^35S]methionine in commercially-available rabbit reticulocyte lysates, according to the instructions of the manufacturer (for example, Promega). […]

Chimera 4 = molecular target: T3, Chimera 4 (Human immunodeficiency virus type 1 group M subtype B, UniProt P04591); experiment: In vitro transcription/translation and assembly, sucrose density gradient fractionation and SDS-PAGE, Chimera 4 Gag; assay type: biochemical, HIV / M-PMV; conditions: added with cyclohexamide after 30 minutes of incubation, reaction continued 90 minutes
T3 construct: the megaprimer reaction yielded a product that contained all of HIV Gag fused to M-PMV p12; made in house; host or cells: cell-free: in vitro transcription/translation (reticulocyte lysate) from plasmid pDABCh4
Description: FIGS. 4A–D—In vitro transcription and translation reactions using plasmids containing M-PMV and Chimera 4 gag genes. After 30 minutes of incubation, cyclohexamide (left panels, FIGS. 4A and 4C) or cyclohexamide plus bis-ANS (right panels, FIGS. 4B and 4D) were added to the reactions. The reactions were then allowed to continue for an additional 90 minutes. Assembled products were analyzed by sucrose density gradient fractionation and SDS-PAGE. Like M-PMV, the formation of sedimented material by Chimera 4 has been inhibited by the addition of bis-ANS. Lanes L and P indicate the loading material and re-suspended pellet, respectively.
as §2

HIV Gag = molecular target: T4, HIV Gag (Human immunodeficiency virus type 1 group M subtype B, UniProt P04591); experiment: In vitro transcription/translation, sucrose density gradient fractionation and SDS-PAGE, HIV Gag; assay type: biochemical; conditions: added with cyclohexamide after 30 minutes of incubation, reaction continued 90 minutes
T4 construct: made in house; host or cells: cell-free: in vitro transcription/translation (reticulocyte lysate)
Description: as §1, §2

M-PMV Gag [2] = molecular target: T1, M-PMV Gag; experiment: In vitro transcription/translation, pelleting through a sucrose cushion (rapid centrifugation assay), M-PMV Gag; assay type: biochemical; conditions: added after 30 minutes, continued 90 minutes; sucrose cushion 35% w/v
Description: FIG. 5—In vitro transcription and translation reactions using plasmids containing M-PMV gag genes. After 30 minutes of incubation, anti-p 12 antibody or bis-ANS was added to the reactions. The reactions were then allowed to continue for an additional 90 minutes. Assembled products were analyzed by pelleting through a sucrose cushion (35% w/v). Synthesis reactions were pelleted through a sucrose cushion, and supernatant and pellet were then collected for gel analysis. […] Lanes S and P indicate supernatant and pellet, respectively.

In the case of `O=S(=O)(O)c1cccc2c(-c3ccc(Nc4ccccc4)c4c(S(=O)(=O)O)cccc34)ccc(Nc3ccccc3)c12` [bis-ANS], the “formation of sedimented material by M-PMV Gag” value (M-PMV Gag [1]) is reported as “inhibited”, the “formation of sedimented material indicative of particle formation by Chimera 3a” value (Chimera 3a) is reported as “inhibited; also recorded: largely blocked” and the “formation of sedimented material by Chimera 4” value (Chimera 4) is reported as “inhibited; also recorded: largely blocked”. The “distribution of HIV Gag in sucrose gradients” value (HIV Gag) was “no effect” and the “formation of pelletable material by M-PMV Gag (immature M-PMV viral capsids)” value (M-PMV Gag [2]) was “reduce or prevent; also recorded: significantly reduce”.
